Measurements: patent publication US9765105B2, “Macrolide compound” (Pulike Biological Engineering, Inc., priority 2013, dated 2017)

Assays:
Assay in all cases: in vitro susceptibility, MIC by mini broth dilution
Format in all cases: cell-based
[1] = test system: Staphylococcus aureus CVCC26003; conditions: strain CVCC26003
Protocol: (§1) in vitro tests of susceptibility of the compounds according to the present disclosure against bacterial strains commonly used in laboratories. In accordance with the Performance Standards for Antimicrobial Disk Susceptibility Tests: Approved Standard published by the US National Committee for Clinical Laboratory Standards, the antibacterial activities of compounds prepared according to examples 5 to 187 were tested. The MICs (minimum inhibitory concentration) of the medicaments prepared according to the examples on the following bacterial strains were measured through mini broth dilution technique. Staphylococcus aureus CVCC26003, Streptococcus equines CVCC556. Actinobacillus pleuropneumoniae CVCC262, Haemophilus parasuis, and Pasteurella multocida CVCC399, which were purchased from the Control Institute of Veterinary Bioproducts and Pharmaceuticals, China. 4.1.1 Culture Medium for Staphylococcus aureus CVCC26003 Liquid culture medium: CAMHB. […] Solid culture medium: NINA prepared according to the specification of the final product. The strains were taken out of a refrigerator at −20° C. to be revived, and were spreaded by streaking on the solid culture medium with an inoculating loop. The inoculated culture medium was cultured at 35° C. in a constant temperature incubator for 20 h. […] were selected from a well-grown culture plate and streaked on the solid culture medium. The inoculated culture medium was cultured at 35° C. in the constant temperature incubator for 20 h. […] A 96-well plate was used, and 100 μl of DMSO was added into each of wells 2 to 11, and 200 μl of ready-prepared medicament solution was added into the 1st well, 100 μl of the medicament solution was extracted from the 1st well and added into the 2nd well. Double dilution was performed until the 11th well, thereby forming 11 gradients. In this case, compound of parent plate was prepared. 3 μl of double diluted medicament solution was extracted with a 12-channel pipettor and added into wells 1-11 of a new disposable 96-well culture plate. The 12th well thereof is a control well. For each medicament, there are two adjacent rows which are parallel. The transferred compound plate was reserved for later use. […] The dilution ratio was recorded, and the bacterial liquid for the tests was diluted according to the recorded dilution ratio. Subsequently, the bacterial suspension and the liquid culture medium were diluted in the proportion of 1:200. The diluted solution was reserved for later use.

[2] = test system: Pasteurella multocida CVCC399; conditions: strain CVCC399
Protocol: as §1, with “China. 4.1.2” for “China. 4.1.1”, “Culture Media” for “Culture Medium”, “for the Rest Four Bacterial Strains.” for “for Staphylococcus aureus CVCC26003”, “medium:” for “medium: CAMHB.”, “medium: […]” for “medium: NINA prepared according to the specification of the final product.”

[3] = test system: Streptococcus equines CVCC556; conditions: strain CVCC556
Protocol: as §1, with “China. 4.1.2” for “China. 4.1.1”, “Culture Media” for “Culture Medium”, “for the Rest Four Bacterial Strains.” for “for Staphylococcus aureus CVCC26003”, “medium:” for “medium: CAMHB.”, “medium: […]” for “medium: NINA prepared according to the specification of the final product.”

[4] = test system: Actinobacillus pleuropneumoniae CVCC262; conditions: strain CVCC262
Protocol: as §1, with “China. 4.1.2” for “China. 4.1.1”, “Culture Media” for “Culture Medium”, “for the Rest Four Bacterial Strains.” for “for Staphylococcus aureus CVCC26003”, “medium:” for “medium: CAMHB.”, “medium: […]” for “medium: NINA prepared according to the specification of the final product.”

Haemophilus parasuis = test system: Haemophilus parasuis
Protocol: as §1, with “China. 4.1.2” for “China. 4.1.1”, “Culture Media” for “Culture Medium”, “for the Rest Four Bacterial Strains.” for “for Staphylococcus aureus CVCC26003”, “medium:” for “medium: CAMHB.”, “medium: […]” for “medium: NINA prepared according to the specification of the final product.”

SMILES | MIC values, Staphylococcus aureus CVCC26003 [1] [ug/mi] | MIC values, Pasteurella multocida CVCC399 [2] [ug/mi] | MIC values, Streptococcus equines CVCC556 [3] [ug/mi] | MIC values, Actinobacillus pleuropneumoniae CVCC262 [4] [ug/mi] | MIC values, Haemophilus parasuis (Haemophilus parasuis)
CCC1OC(=O)C(C)C(OC2CC(C)(OC)C(O)(CNCNCc3ccc(C=O)cc3)C(C)O2)C(C)C(OC2OC(C)CC(N(C)C)C2O)C(C)(O)CC(C)NCC(C)C(O)C1(C)O [syzx-39, (2R,3S,4R,5S,8R,10R,11R,12S,13S,14R)-13-[(2,6-dideoxy-3-C-methyl-3-O-methyl-4-C-[[[(4-formyl-benzyl-amino)-methyl]amino]-methyl]-α-L-ribopyranosyl)oxy]-2-ethyl-3,4,10-trihydroxy-3,5,8,10,12,14-hexamethyl-11-[[3,4,6-trideoxy-3-(dimethylamino)-β-D-xylo-hexopyranosy]oxy]-1-oxa-7-azacyclopentadecan-15-one] | 0.25 | 0.5 | 0.5 | 0.25 | 0.25 ug/mi
C#CCNC[C@]1(O)[C@H](C)O[C@@H](O[C@H]2[C@H](C)[C@@H](O[C@@H]3O[C@H](C)C[C@H](N(C)C)[C@H]3O)[C@](C)(O)C[C@@H](C)NC[C@H](C)[C@@H](O)[C@](C)(O)[C@@H](CC)OC(=O)[C@@H]2C)C[C@@]1(C)OC [syzx-40, (2R,3S,4R,5S,8R,10R,11R,12S,13S,14R)-13-[(2,6-dideoxy-3-C-methyl-3-O-methyl-4-C-[[propargyl-amino]-methyl]-α-L-ribopyranosyl)oxy]-2-ethyl-3,4,10-trihydroxy-3,5,8,10,12,14-hexamethyl-11-[[3,4,6-trideoxy-3-(dimethylamino)-β-D-xylo-hexopyranosy]oxy]-1-oxa-7-azacyclopentadecan-15-one] | 0.5 | 1 | 0.5 | 16 | 0.5 ug/mi
CCC(NC[C@]1(O)[C@H](C)O[C@@H](O[C@H]2[C@H](C)[C@@H](O[C@@H]3O[C@H](C)C[C@H](N(C)C)[C@H]3O)[C@](C)(O)C[C@@H](C)NC[C@H](C)[C@@H](O)[C@](C)(O)[C@@H](CC)OC(=O)[C@@H]2C)C[C@@]1(C)OC)C(=O)O (stereo partly drawn) [syzx-41, (2R,3S,4R,5S,8R,10R,11R,12S,13S,14R)-13-[(2,6-dideoxy-3-C-methyl-3-O-methyl-4-C-[[butyrate-2-amino]-methyl]-α-L-ribopyranosyl)oxy]-2-ethyl-3,4,10-trihydroxy-3,5,8,10,12,14-hexamethyl-11-[[3,4,6-trideoxy-3-(dimethylamino)-β-D-xylo-hexopyranosy]oxy]-1-oxa-7-azacyclopentadecan-15-one] | 2 | 4 | 0.5 | 1 | 1 ug/mi
CC[C@H]1OC(=O)[C@H](C)[C@@H](O[C@H]2C[C@@](C)(OC)[C@](O)(CNCCCC(=O)O)[C@H](C)O2)[C@H](C)[C@@H](O[C@@H]2O[C@H](C)C[C@H](N(C)C)[C@H]2O)[C@](C)(O)C[C@@H](C)NC[C@H](C)[C@@H](O)[C@]1(C)O [syzx-42, (2R,3S,4R,5S,8R,10R,11R,12S,13S,14R)-13-[(2,6-dideoxy-3-C-methyl-3-O-methyl-4-C-[[butyrate-4-amino]-methyl]-α-L-ribopyranosyl)oxy]-2-ethyl-3,4,10-trihydroxy-3,5,8,10,12,14-hexamethyl-11-[[3,4,6-trideoxy-3-(dimethylamino)-β-D-xylo-hexopyranosy]oxy]-1-oxa-7-azacyclopentadecan-15-one] | 2 | 2 | 1 | 1 | 1 ug/mi

The remaining lines, values ahead:

MIC values, Staphylococcus aureus CVCC26003 [1] [ug/mi] | MIC values, Pasteurella multocida CVCC399 [2] [ug/mi] | MIC values, Streptococcus equines CVCC556 [3] [ug/mi] | MIC values, Actinobacillus pleuropneumoniae CVCC262 [4] [ug/mi] | MIC values, Haemophilus parasuis (Haemophilus parasuis) | SMILES
1 | 4 | 2 | 32 | ≦0.25 ug/mi | CC[C@H]1OC(=O)[C@H](C)[C@@H](O[C@H]2C[C@@](C)(OC)[C@](O)(CNCCCO)[C@H](C)O2)[C@H](C)[C@@H](O[C@@H]2O[C@H](C)C[C@H](N(C)C)[C@H]2O)[C@](C)(O)C[C@@H](C)NC[C@H](C)[C@@H](O)[C@]1(C)O [syzx-46, (2R,3S,4R,5S,8R,10R,11R,12S,13S,14R)-13-[(2,6-dideoxy-3-C-methyl-3-O-methyl-4-C-[(3-hydroxy-propylamino)-methyl]-α-L-ribopyranosyl)oxy]-2-ethyl-3,4,10-trihydroxy-3,5,8,10,12,14-hexamethyl-11-[[3,4,6-trideoxy-3-(dimethylamino)-β-D-xylo-hexopyranosy]oxy]-1-oxa-7-azacyclopentadecan-15-one]
0.5 | 1 | 0.5 | 16 | ≦0.25 ug/mi | CC[C@H]1OC(=O)[C@H](C)[C@@H](O[C@H]2C[C@@](C)(OC)[C@](O)(CNN3CCOCC3)[C@H](C)O2)[C@H](C)[C@@H](O[C@@H]2O[C@H](C)C[C@H](N(C)C)[C@H]2O)[C@](C)(O)C[C@@H](C)NC[C@H](C)[C@@H](O)[C@]1(C)O [syzx-48, (2R,3S,4R,5S,8R,10R,11R,12S,13S,14R)-13-[(2,6-dideoxy-3-C-methyl-3-O-methyl-4-C-[(morpholin-4-yl-amino)-methyl]-α-L-ribopyranosyl)oxy]-2-ethyl-3,4,10-trihydroxy-3,5,8,10,12,14-hexamethyl-11-[[3,4,6-trideoxy-3-(dimethylamino)-β-D-xylo-hexopyranosy]oxy]-1-oxa-7-azacyclopentadecan-15-one]
1 | 1 | 1 | 0.5 | 0.5 ug/mi | CC[C@H]1OC(=O)[C@H](C)[C@@H](OC2CC(C)(OC)C(O)(CNC(C)CC(=O)O)C(C)O2)[C@H](C)[C@@H](O[C@@H]2O[C@H](C)C[C@H](N(C)C)[C@H]2O)[C@](C)(O)C[C@@H](C)NC[C@H](C)[C@@H](O)[C@]1(C)O (stereo partly drawn) [syzx-50, 3-({(2R,3S,4R,5S,8R,10R,11R,12S,13S,14R)-6-[-11-[[3,4,6-trideoxy-3-(dimethylamino)-β-D-xylo-hexopyranosy]oxy]-2-ethyl-3,4,10-trihydroxy-3,5,8,10,12,14-hexamethyl-1-oxa-7-azacyclopentadecan-15-one-13-yl-oxy]-3-hydroxy-4-methoxy-2,4-dimethyl-tetrahydropyran-3-yl-methyl}-amino)-butyric acid]
